Measurements from patent publication US10799522B2, “Compositions and methods relating to galectin detection” (Wayne State University, priority 2015, dated 2020).

Experiment: radiation dosimetry estimates for human patients
Details: adult male

OCC1OC(SC2OC(CO)C(O)C(n3cc(-c4cccc([18F])c4)nn3)C2O)C(O)C(n2cc(-c3cccc(F)c3)nn2)C1O [[^18F]FPTDG, 3-(3-[^18F]fluorophenyltriazolyl)-3-deoxy-3′-(3-fluorophenyltriazolyl)-3′-deoxy-1-thio-β-D-digalactopyranoside]
Effective Dose: Effective Dose 6.74 mSv per 370 MBq dose or 10 mCi | Effective Dose Equivalent: Effective Dose Equivalent 6.12 mSv per 370 MBq dose or 10 mCi | Estimated organ dose, Alpha (Total Body): 0 mSv per 370 MBq dose or 10 mCi | Estimated organ dose, Beta (Total Body): 1.79 mSv per 370 MBq dose or 10 mCi | Estimated organ dose, ED Cont. (Total Body): 0.00 mSv per 370 MBq dose or 10 mCi | Estimated organ dose, EDE Cont. (Total Body): 0.00 mSv per 370 MBq dose or 10 mCi | Estimated organ dose, Photon (Total Body): 2.67 mSv per 370 MBq dose or 10 mCi | Estimated organ dose, Total (Total Body): 4.46 mSv per 370 MBq dose or 10 mCi | Estimated organ dose, Alpha (target organ Adrenals): 0 mSv per 370 MBq dose or 10 mCi | Estimated organ dose, Beta (target organ Adrenals): 1.70 mSv per 370 MBq dose or 10 mCi | Estimated organ dose, ED Cont. (target organ Adrenals): 0.03 mSv per 370 MBq dose or 10 mCi | Estimated organ dose, EDE Cont. (target organ Adrenals): 0.00 mSv per 370 MBq dose or 10 mCi | Estimated organ dose, Photon (target organ Adrenals): 3.33 mSv per 370 MBq dose or 10 mCi | Estimated organ dose, Total (target organ Adrenals): 5.03 mSv per 370 MBq dose or 10 mCi | Estimated organ dose, Alpha (target organ Brain): 0 mSv per 370 MBq dose or 10 mCi | Estimated organ dose, Beta (target organ Brain): 1.70 mSv per 370 MBq dose or 10 mCi | Estimated organ dose, ED Cont. (target organ Brain): 0.02 mSv per 370 MBq dose or 10 mCi | Estimated organ dose, EDE Cont. (target organ Brain): 0.00 mSv per 370 MBq dose or 10 mCi | Estimated organ dose, Photon (target organ Brain): 2.22 mSv per 370 MBq dose or 10 mCi | Estimated organ dose, Total (target organ Brain): 3.92 mSv per 370 MBq dose or 10 mCi | Estimated organ dose, Alpha (target organ Breasts): 0 mSv per 370 MBq dose or 10 mCi | Estimated organ dose, Beta (target organ Breasts): 1.70 mSv per 370 MBq dose or 10 mCi | Estimated organ dose, ED Cont. (target organ Breasts): 0.18 mSv per 370 MBq dose or 10 mCi | Estimated organ dose, EDE Cont. (target organ Breasts): 0.54 mSv per 370 MBq dose or 10 mCi | Estimated organ dose, Photon (target organ Breasts): 1.87 mSv per 370 MBq dose or 10 mCi | Estimated organ dose, Total (target organ Breasts): 3.57 mSv per 370 MBq dose or 10 mCi | Estimated organ dose, Alpha (target organ Gallbladder Wall): 0 mSv per 370 MBq dose or 10 mCi | Estimated organ dose, Beta (target organ Gallbladder Wall): 1.70 mSv per 370 MBq dose or 10 mCi | Estimated organ dose, ED Cont. (target organ Gallbladder Wall): 0.00 mSv per 370 MBq dose or 10 mCi | Estimated organ dose, EDE Cont. (target organ Gallbladder Wall): 0.00 mSv per 370 MBq dose or 10 mCi | Estimated organ dose, Photon (target organ Gallbladder Wall): 3.7 mSv per 370 MBq dose or 10 mCi | Estimated organ dose, Total (target organ Gallbladder Wall): 5.40 mSv per 370 MBq dose or 10 mCi | Estimated organ dose, Alpha (target organ Heart Wall): 0 mSv per 370 MBq dose or 10 mCi | Estimated organ dose, Beta (target organ Heart Wall): 1.72 mSv per 370 MBq dose or 10 mCi | Estimated organ dose, ED Cont. (target organ Heart Wall): 0.00 mSv per 370 MBq dose or 10 mCi | Estimated organ dose, EDE Cont. (target organ Heart Wall): 0.00 mSv per 370 MBq dose or 10 mCi | Estimated organ dose, Photon (target organ Heart Wall): 2.76 mSv per 370 MBq dose or 10 mCi | Estimated organ dose, Total (target organ Heart Wall): 4.48 mSv per 370 MBq dose or 10 mCi | Estimated organ dose, Alpha (target organ Kidneys): 0 mSv per 370 MBq dose or 10 mCi | Estimated organ dose, Beta (target organ Kidneys): 1.70 mSv per 370 MBq dose or 10 mCi | Estimated organ dose, ED Cont. (target organ Kidneys): 0.02 mSv per 370 MBq dose or 10 mCi | Estimated organ dose, EDE Cont. (target organ Kidneys): 0.00 mSv per 370 MBq dose or 10 mCi | Estimated organ dose, Photon (target organ Kidneys): 3.24 mSv per 370 MBq dose or 10 mCi | Estimated organ dose, Total (target organ Kidneys): 4.94 mSv per 370 MBq dose or 10 mCi | Estimated organ dose, Alpha (target organ LLI Wall): 0 mSv per 370 MBq dose or 10 mCi | Estimated organ dose, Beta (target organ LLI Wall): 9.25 mSv per 370 MBq dose or 10 mCi | Estimated organ dose, ED Cont. (target organ LLI Wall): 1.72 mSv per 370 MBq dose or 10 mCi | Estimated organ dose, EDE Cont. (target organ LLI Wall): 0.86 mSv per 370 MBq dose or 10 mCi | Estimated organ dose, Photon (target organ LLI Wall): 5.06 mSv per 370 MBq dose or 10 mCi | Estimated organ dose, Total (target organ LLI Wall): 14.30 mSv per 370 MBq dose or 10 mCi | Estimated organ dose, Alpha (target organ Liver): 0 mSv per 370 MBq dose or 10 mCi | Estimated organ dose, Beta (target organ Liver): 1.30 mSv per 370 MBq dose or 10 mCi | Estimated organ dose, ED Cont. (target organ Liver): 0.20 mSv per 370 MBq dose or 10 mCi | Estimated organ dose, EDE Cont. (target organ Liver): 0.00 mSv per 370 MBq dose or 10 mCi | Estimated organ dose, Photon (target organ Liver): 2.79 mSv per 370 MBq dose or 10 mCi | Estimated organ dose, Total (target organ Liver): 4.08 mSv per 370 MBq dose or 10 mCi | Estimated organ dose, Alpha (target organ Lungs): 0 mSv per 370 MBq dose or 10 mCi | Estimated organ dose, Beta (target organ Lungs): 0.03 mSv per 370 MBq dose or 10 mCi | Estimated organ dose, ED Cont. (target organ Lungs): 0.28 mSv per 370 MBq dose or 10 mCi | Estimated organ dose, EDE Cont. (target organ Lungs): 0.28 mSv per 370 MBq dose or 10 mCi | Estimated organ dose, Photon (target organ Lungs): 2.26 mSv per 370 MBq dose or 10 mCi | Estimated organ dose, Total (target organ Lungs): 2.29 mSv per 370 MBq dose or 10 mCi | Estimated organ dose, Alpha (target organ Muscle): 0 mSv per 370 MBq dose or 10 mCi | Estimated organ dose, Beta (target organ Muscle): 1.70 mSv per 370 MBq dose or 10 mCi | Estimated organ dose, ED Cont. (target organ Muscle): 0.02 mSv per 370 MBq dose or 10 mCi | Estimated organ dose, EDE Cont. (target organ Muscle): 0.00 mSv per 370 MBq dose or 10 mCi | Estimated organ dose, Photon (target organ Muscle): 2.68 mSv per 370 MBq dose or 10 mCi | Estimated organ dose, Total (target organ Muscle): 4.38 mSv per 370 MBq dose or 10 mCi | Estimated organ dose, Alpha (target organ Osteogenic Cells): 0 mSv per 370 MBq dose or 10 mCi | Estimated organ dose, Beta (target organ Osteogenic Cells): 3.64 mSv per 370 MBq dose or 10 mCi | Estimated organ dose, ED Cont. (target organ Osteogenic Cells): 0.07 mSv per 370 MBq dose or 10 mCi | Estimated organ dose, EDE Cont. (target organ Osteogenic Cells): 0.21 mSv per 370 MBq dose or 10 mCi | Estimated organ dose, Photon (target organ Osteogenic Cells): 3.17 mSv per 370 MBq dose or 10 mCi | Estimated organ dose, Total (target organ Osteogenic Cells): 6.82 mSv per 370 MBq dose or 10 mCi | Estimated organ dose, Alpha (target organ Ovaries): 0 mSv per 370 MBq dose or 10 mCi | Estimated organ dose, Beta (target organ Ovaries): 1.70 mSv per 370 MBq dose or 10 mCi
